Here are results for 29 molecules from US20260374754A1, “N-((ISOQUINOLIN-6-YL)METHYL)-1H-PYRAZOLE-4-CARBOXAMIDE DERIVATIVES AS PLASMA KALLIKREIN INHIBITORS FOR THE TREATMENT OF HEREDITARY ANGIODEMA” (Takeda Pharmaceutical Company Limited, priority 2022, published 2026).

What is called EC50 is the concentration that produces a half-maximal response.

Chain of human activated kallikrein enzyme (P03952 391-638 limits assumed): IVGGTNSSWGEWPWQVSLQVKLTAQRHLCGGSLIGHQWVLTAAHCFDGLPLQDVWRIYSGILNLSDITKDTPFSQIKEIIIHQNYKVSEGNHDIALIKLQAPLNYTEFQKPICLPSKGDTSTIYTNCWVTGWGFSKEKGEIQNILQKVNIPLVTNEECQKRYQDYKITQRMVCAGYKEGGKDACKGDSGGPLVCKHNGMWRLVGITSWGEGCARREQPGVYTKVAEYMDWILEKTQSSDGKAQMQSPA
Chain of human activated kallikrein enzyme (P03952 20-390 partner limits assumed): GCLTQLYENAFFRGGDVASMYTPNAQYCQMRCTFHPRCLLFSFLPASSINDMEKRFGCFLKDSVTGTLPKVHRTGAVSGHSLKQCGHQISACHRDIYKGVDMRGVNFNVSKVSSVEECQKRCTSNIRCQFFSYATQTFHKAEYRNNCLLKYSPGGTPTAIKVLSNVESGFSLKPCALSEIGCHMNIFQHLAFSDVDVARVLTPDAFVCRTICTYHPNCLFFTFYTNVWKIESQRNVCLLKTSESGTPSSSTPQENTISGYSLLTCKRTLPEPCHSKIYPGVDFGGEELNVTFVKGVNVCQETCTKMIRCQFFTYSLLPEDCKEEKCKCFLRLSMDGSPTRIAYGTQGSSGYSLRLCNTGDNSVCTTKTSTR

The test has as its target human activated kallikrein enzyme (Homo sapiens, UniProt P03952). Briefly: Inhibition of human activated plasma kallikrein, fluorogenic PFR-AMC substrate, 500 pM enzyme format. Format: biochemical. Particulars: 500 pM activated kallikrein; 300 μM PFR-AMC; 30 min preincubation; 10 min room temperature; pH 7.5; read-out: Primary Dose Response Assay: Average EC50. The method in brief:
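500 pM activated kallikrein preincubated 30 min at room temperature with inhibitors in pH 7.5 Tris/EDTA/NaCl buffer with PEG-400 and Triton X-100. Reaction started with 300 μM PFR-AMC, run 10 min at room temperature; AMC fluorescence read at ex 380/em 460 nm.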
With `Cc1cc2c(N)nccc2c(C)c1CNC(=O)c1cnn(Cc2ccc(N(C)C(=O)N(C)C)cc2)c1` [Example 22, N-((1-amino-5,7-dimethylisoquinolin-6-yl)methyl)-1-(4-(1,3,3-trimethylureido)benzyl)-1H-pyrazole-4-carboxamide], the EC50 lay in the range of 1 to 10 nM.
The same measure for `Cc1cc2c(N)nccc2c(C)c1CNc1cc(NCc2ccc(Cn3cccn3)cc2C(F)(F)F)ncn1` [Example 380, N^4-(4-((1H-pyrazol-1-yl)methyl)-2-(trifluoromethyl)benzyl)-N^6-((1-amino-5,7-dimethylisoquinolin-6-yl)methyl)pyrimidine-4,6-diamine]: 1 to 10 nM.
The result for `COC(=O)C(c1cn2cc(C)ccc2n1)n1cc(C(=O)NCc2c(C)cc3c(N)nccc3c2C)cn1` (centres unmarked) [Example 14, methyl 2-(4-(((1-amino-5,7-dimethylisoquinolin-6-yl)methyl)carbamoyl)-1H-pyrazol-1-yl)-2-(6-methylimidazo[1,2-a]pyridin-2-yl)acetate] reads 100 to 1000 nM; that for `Cc1cc2c(N)nccc2c(C)c1CNC(=O)c1cnn(Cc2cnc(-c3ccccc3)nc2)c1` [Example 195, N-((1-amino-5,7-dimethylisoquinolin-6-yl)methyl)-1-((2-phenylpyrimidin-5-yl)methyl)-1H-pyrazole-4-carboxamide], 1 to 10 nM.
The same measure for `Cc1cc2c(N)nccc2c(C)c1CNC(=O)c1cnn(Cc2ccc(CC(=O)N3CC4CC4C3)nc2)c1` (centres unmarked) [Example 90, 1-((6-(2-(3-azabicyclo[3.1.0]hexan-3-yl)-2-oxoethyl)pyridin-3-yl)methyl)-N-((1-amino-5,7-dimethylisoquinolin-6-yl)methyl)-1H-pyrazole-4-carboxamide]: less than 1 nM; for `Cc1cc2c(N)nccc2c(C)c1CNc1cc(OCc2ccc(Cn3cccc(C4CC4)c3=O)cc2)cnn1` [Example 437, 1-(4-(((6-(((1-amino-5,7-dimethylisoquinolin-6-yl)methyl)amino)pyridazin-4-yl)oxy)methyl)benzyl)-3-cyclopropylpyridin-2(1H)-one]: less than 1 nM; for `Cc1cc2c(N)nccc2c(C)c1CNc1cc(N(C)Cc2ccc(Cn3cccn3)cc2)cnn1` [Example 235, N5-(4-((1H-pyrazol-1-yl)methyl)benzyl)-N3-((1-amino-5,7-dimethylisoquinolin-6-yl)methyl)-N5-methylpyridazine-3,5-diamine]: less than 1 nM.
Turning to `Cc1cc2c(N)nccc2c(C)c1CNC(=O)c1cnn(Cc2cn3cc(C4CC4(C)C)ccc3n2)c1` (centres unmarked) [Example 176, N-((1-amino-5,7-dimethylisoquinolin-6-yl)methyl)-1-((6-(2,2-dimethylcyclopropyl)imidazo[1,2-a]pyridin-2-yl)methyl)-1H-pyrazole-4-carboxamide], the EC50 was in the range of 1 to 10 nM.
The same measure for `Cc1cc2c(N)nccc2c(C)c1CNc1ncnc2oc(Cc3ccc4ncc(Cl)cc4c3)nc12` [Example 538, N-((1-amino-5,7-dimethylisoquinolin-6-yl)methyl)-2-((3-chloroquinolin-6-yl)methyl)oxazolo[5,4-d]pyrimidin-7-amine]: 10 to 100 nM.
The same measure for `Cc1cc2c(N)nccc2c(C)c1CNc1cc(OCc2ccc3c(cnn3C)c2)cnn1` [Example 413, 5,7-dimethyl-6-(((5-((1-methyl-1H-indazol-5-yl)methoxy)pyridazin-3-yl)amino)methyl)isoquinolin-1-amine]: 1 to 10 nM; for `Cc1cc2c(N)nccc2c(C)c1CNC(=O)c1cnn(Cc2ccc(-n3ccccc3=O)nc2)c1` [Example 46, N-((1-amino-5,7-dimethylisoquinolin-6-yl)methyl)-1-((2-oxo-2H-[1,2'-bipyridin]-5'-yl)methyl)-1H-pyrazole-4-carboxamide]: 10 to 100 nM.
The result for `CNc1nccc2c(C)c(CNC(=O)c3cnn(Cc4cn5cc(C6CC6)ccc5n4)c3)c(C)cc12` [Example 134, 1-((6-cyclopropylimidazo[1,2-a]pyridin-2-yl)methyl)-N-((5,7-dimethyl-1-(methylamino)isoquinolin-6-yl)methyl)-1H-pyrazole-4-carboxamide] reads less than 1 nM; that for `Cc1cc2c(N)nccc2c(C)c1CNc1cc(NCc2ccc3ncc(F)cc3c2)ncn1` [Example 334, N^4-((1-amino-5,7-dimethylisoquinolin-6-yl)methyl)-N^6-((3-fluoroquinolin-6-yl)methyl)pyrimidine-4,6-diamine], less than 1 nM; that for `Cc1cc2c(N)nccc2c(C)c1CNc1cc(OCc2cn3cc(C4CC4)ccc3n2)cnc1C(=O)O` [Example 495, 3-(((1-amino-5,7-dimethylisoquinolin-6-yl)methyl)amino)-5-((6-cyclopropylimidazo[1,2-a]pyridin-2-yl)methoxy)picolinic acid], greater than 1000 nM.
Take `Cc1cc2c(N)nccc2c(C)c1CNc1cc(OCc2cn3nc(C4CC4)ccc3n2)nc(C(F)(F)F)n1` [Example 389, 6-(((6-((6-cyclopropylimidazo[1,2-b]pyridazin-2-yl)methoxy)-2-(trifluoromethyl)pyrimidin-4-yl)amino)methyl)-5,7-dimethylisoquinolin-1-amine]: the EC50 is 10 to 100 nM.
The result for `Cc1cc2c(N)nccc2c(C)c1CNc1cc(OCc2cn3cc(C4CC4)cc(-n4c(C)nnc4C)c3n2)ncn1` [Example 257, 6-(((6-((6-cyclopropyl-8-(3,5-dimethyl-4H-1,2,4-triazol-4-yl)imidazo[1,2-a]pyridin-2-yl)methoxy)pyrimidin-4-yl)amino)methyl)-5,7-dimethylisoquinolin-1-amine] reads 1 to 10 nM; that for `COC(=O)C12CC1CN(C(=O)Cc1ccc(Cn3cc(C(=O)NCc4c(C)cc5c(N)nccc5c4C)cn3)cc1)C2` (centres unmarked) [Example 217, methyl 3-(2-(4-((4-(((1-amino-5,7-dimethylisoquinolin-6-yl)methyl)carbamoyl)-1H-pyrazol-1-yl)methyl)pheny1)acetyl)-3-azabicyclo[3.1.0]hexane-1-carboxylate], 1 to 10 nM.
The result for `Cc1cc(CNc2cc(NCc3c(C)cc4c(N)nccc4c3C)ncn2)cc(C)c1Cc1ccccn1` [Example 368, N^4-((1-amino-5,7-dimethylisoquinolin-6-yl)methyl)-N^6-(3,5-dimethyl-4-(pyridin-2-ylmethyl)benzyl)pyrimidine-4,6-diamine] reads less than 1 nM; that for `Cc1cc2c(N)nccc2c(C)c1CNC(=O)c1cnn(C(CNC(=O)OC(C)(C)C)c2ccccc2)c1` (centres unmarked) [Example 181, tert-butyl (2-(4-(((1-amino-5,7-dimethylisoquinolin-6-yl)methyl)carbamoyl)-1H-pyrazol-1-yl)-2-phenylethyl)carbamate], greater than 1000 nM; that for `Cc1cc2c(N)nccc2c(C)c1CNc1cc(NCc2ccc(OCc3nccs3)cc2)ncn1` [Example 356, N^4-((1-amino-5,7-dimethylisoquinolin-6-yl)methyl)-N^6-(4-(thiazol-2-ylmethoxy)benzyl)pyrimidine-4,6-diamine], less than 1 nM.
The result for `Cc1cc2c(N)nccc2c(C)c1CNC(=O)c1cnn(Cc2cnc3cc(Cl)ccc3c2)c1` [Example 61, N-((1-amino-5,7-dimethylisoquinolin-6-yl)methyl)-1-((7-chloroquinolin-3-yl)methyl)-1H-pyrazole-4-carboxamide] reads less than 1 nM; that for `Cc1ccc2nc(CNc3cc(NCc4c(C)cc5c(N)nccc5c4C)ncn3)cn2c1` [Example 333, N^4-((1-amino-5,7-dimethylisoquinolin-6-yl)methyl)-N^6-((6-methylimidazo[1,2-a]pyridin-2-yl)methyl)pyrimidine-4,6-diamine], less than 1 nM.
For `Cc1cc2c(N)nccc2c(C)c1CNC(=O)c1cnn(Cc2ccc(CC(=O)N3CC4CC4C3)c(Cl)c2)c1` (centres unmarked) [Example I-474, 1-(4-(2-(3-azabicyclo[3.1.0]hexan-3-yl)-2-oxoethyl)-3-chlorobenzyl)-N-((1-amino-5,7-dimethylisoquinolin-6-yl)methyl)-1H-pyrazole-4-carboxamide], the EC50 was less than 1 nM.
The result for `Cc1ccc(Cn2cc(C(=O)NCc3c(C)cc4c(N)nccc4c3C)cn2)cc1Cl` [Example 96, N-((1-amino-5,7-dimethylisoquinolin-6-yl)methyl)-1-(3-chloro-4-methylbenzyl)-1H-pyrazole-4-carboxamide] reads 1 to 10 nM; that for `Cc1cc2c(N)nccc2c(C)c1CNc1cc(NCc2ccc3ncccc3c2)c(C(N)=O)nn1` [Example 452, 6-(((1-amino-5,7-dimethylisoquinolin-6-yl)methyl)amino)-4-((quinolin-6-ylmethyl)amino)pyridazine-3-carboxamide], 10 to 100 nM.
The same measure for `Cc1cc2c(N)nccc2c(C)c1CNc1cc(NCc2ccc(CC(=O)N3CC4CC4C3)cc2)ncn1` (centres unmarked) [Example 378, 2-(4-(((6-(((1-amino-5,7-dimethylisoquinolin-6-yl)methyl)amino)pyrimidin-4-yl)amino)methyl)phenyl)-1-(3-azabicyclo[3.1.0]hexan-3-yl)ethan-1-one]: less than 1 nM; for `Cc1cc2c(N)nccc2c(C)c1CNS(=O)(=O)c1cn(Cc2cn3cc(C4CC4)ccc3n2)nn1` [Example 491, N-((1-amino-5,7-dimethylisoquinolin-6-yl)methyl)-1-((6-cyclopropylimidazo[1,2-a]pyridin-2-yl)methyl)-1H-1,2,3-triazole-4-sulfonamide]: 10 to 100 nM; for `Cc1cc2c(N)nccc2c(C)c1CNC(=O)c1cnn(Cc2cccc(F)c2)c1` [Example 45, N-((1-amino-5,7-dimethylisoquinolin-6-yl)methyl)-1-(3-fluorobenzyl)-1H-pyrazole-4-carboxamide]: 100 to 1000 nM.
The same measure for `CCOC(=O)CCc1nc(NCc2c(C)cc3c(N)nccc3c2C)cc(OCc2nc3ccc(C4CC4)cn3n2)n1` [Example 292, ethyl 3-(4-(((1-amino-5,7-dimethylisoquinolin-6-yl)methyl)amino)-6-((6-cyclopropyl-[1,2,4]triazolo[1,5-a]pyridin-2-yl)methoxy)pyrimidin-2-yl)propanoate]: 10 to 100 nM.
